pKi: −log10 of the molar value. Values after ≈ are worked out from the molar mass of the structure shown. “Also recorded” adds a separate entry of the source. Like-named read-outs stand apart in the source and are kept apart here. Values belong to the compound of their own block, whether it stands above or below them.
Columns and labels:
[1] = tested on: α-glucosidase (from Saccharomyces cerevisiae); test: α-glucosidase inhibitory assay; assay type: biochemical
α-glucosidase = details: cited from earlier work
[2] = tested on: α-glucosidase (from Saccharomyces cerevisiae); test: α-glucosidase enzyme kinetic analysis; details: for inhibition mechanism: Lineweaver–Burk plots; for pKi: secondary plot of slopes

Inhibition (%) ([1]; 10 mg/mL, n = 3, mean ± SD): 80.2 ± 0.7% | inhibition mechanism [2]: competitive inhibition
Compound: C[C@H]1O[C@H](O[C@H]2[C@H](O)[C@@H](O)[C@@H](O[C@H]3[C@H](O)[C@@H](O)C(O)O[C@@H]3CO)O[C@@H]2CO)[C@H](O)[C@@H](O)[C@@H]1N[C@H]1C=C(CO)[C@@H](O)[C@H](O)[C@H]1O (stereo partly drawn) [Acarbose, reference compound]
inhibition mechanism (α-glucosidase): competitive inhibitor

α-glucosidase inhibitory activity of isolated compounds (in words) [1]: no inhibitory activity
Compound: CC(=O)c1nccc2c1[nH]c1ccccc12 [1-acetyl-β-carboline]

Compound: O=c1c(-c2ccc(O)cc2)coc2cc(O)cc(O)c12 [genistein]
inhibition type (α-glucosidase): non-competitive inhibitor

Compound: CC/C=C\C/C=C\C/C=C\CCCCCCCC(=O)O [α-linolenic acid]
inhibition mechanism (α-glucosidase; fatty acids): mixed-type

pKi [2]: 3.81
Compound: O=c1ccn([C@@H]2O[C@H](CO)[C@@H](O)[C@H]2O)c(=O)[nH]1 [Uridine]
α-glucosidase inhibitory activity of isolated compounds (in words) [1]: exhibited α-glucosidase inhibitory activity | inhibition mechanism [2]: competitive inhibitor; also recorded: competitive inhibition

α-glucosidase inhibitory activity of isolated compounds (in words) [1]: no inhibitory activity
Compound: O=Cc1ccc(O)cc1 [4-hydroxybenzaldehyde]

Compound: OC[C@H]1O[C@H](O[C@H]2[C@H](O)[C@@H](O)[C@@H](O[C@H]3[C@H](O)[C@@H](O)C(O)O[C@@H]3CO)O[C@@H]2CO)[C@H](O)[C@@H](O)[C@@H]1N[C@@H]1[C@H](O)[C@@H](O)[C@H](O)[C@]2(CO)O[C@H]12 (stereo partly drawn) [CKD-711]
IC50 (α-glucosidase): 2.5 µg/mL (≈ 3.69 µM)

Compound: CCCCCCCC/C=C\CCCCCCCC(=O)O [oleic acid]
inhibition mechanism (α-glucosidase; fatty acids): mixed-type

Compound: CCCCC/C=C\C/C=C\CCCCCCCC(=O)O [linoleic acid]
inhibition mechanism (α-glucosidase; fatty acids): mixed-type

Compound: CCCCCCCCCCCCCCCC(=O)O [C16:0, Palmitic acid]
inhibition mechanism (α-glucosidase; fatty acids): mixed-type

Compound: CC/C=C\C/C=C\C/C=C\C/C=C\C/C=C\CCCC(=O)O [eicosapentaenoic acid]
inhibition mechanism (α-glucosidase; fatty acids): mixed-type

Compound: CCCCC/C=C\C/C=C\C/C=C\C/C=C\CCCC(=O)O [arachidonic acid]
inhibition mechanism (α-glucosidase; fatty acids): mixed-type

Compound: CCCCOC(=O)c1ccccc1C(=O)OCCCC [DBP, dibutyl phthalate]
α-glucosidase inhibitory activity of isolated compounds (in words) [1]: exhibited α-glucosidase inhibitory activity | inhibition mechanism [2]: mixed-type | pKi [2]: 3.29

Compound: hydroxyglutaric acid [HGA]
IC50 (α-glucosidase; from Paenibacillus sp. TKU042): 220 µg/mL

inhibition mechanism [2]: mixed-type | pKi [2]: 4.04
Compound: Nc1ncnc2c1ncn2[C@@H]1O[C@H](CO)[C@@H](O)[C@H]1O [Adenosine]
α-glucosidase inhibitory activity of isolated compounds (in words) [1]: exhibited α-glucosidase inhibitory activity

Compound: OC[C@H]1O[C@H](O[C@H]2[C@H](O)[C@@H](O)[C@@H](O[C@H]3[C@H](O)[C@@H](O)[C@@H](O[C@H]4[C@H](O)[C@@H](O)[C@@H](O[C@H]5[C@H](O)[C@@H](O)C(O)O[C@@H]5CO)O[C@@H]4CO)O[C@@H]3CO)O[C@@H]2CO)[C@H](O)[C@@H](O)[C@@H]1N[C@@H]1[C@H](O)[C@@H](O)[C@H](O)[C@]2(CO)O[C@H]12 (stereo partly drawn) [CKD-711a]
IC50 (α-glucosidase): 6.5 µg/mL (≈ 6.49 µM)
